Experimental data published in publication PMC7501296, “Rapid and direct control of target protein levels with VHL-recruiting dTAG molecules” (Nature Communications, 2020).
“And” between values parts separate entries of the source, which are not always exact repeats. Equal entries are not always repeated.

Tests used:
Type in all cases: cell-based
[1] = test system: PATU-8902 FKBP12^F36V-KRAS^G12V; KRAS^-/- clone; test: Antiproliferation, PATU-8902 FKBP12F36V-KRASG12V; KRAS-/- clone, 3D-spheroid (CellTiter-Glo); conditions: FKBP12F36V-KRASG12V, KRAS-/-, 3D-spheroid, replicate values
In short: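 Viability of cells grown as ultra-low adherent 3D-spheroids was determined with CellTiter-Glo (Promega). Luminescence readings were taken on an Envision 2104 plate reader (PerkinElmer) and a Fluostar Omega Reader (BMG Labtech), and the resulting data were processed in GraphPad PRISM v8 to assess effects on cell proliferation.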

[2] = test system: PATU-8902 LACZ-FKBP12^F36V clone; test: Antiproliferation, PATU-8902 LACZ-FKBP12F36V clone, 3D-spheroid (CellTiter-Glo)
In short: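 Viability of cells grown as ultra-low adherent 3D-spheroids was determined with the CellTiter-Glo reagent (Promega). Luminescence was read on either an Envision 2104 plate reader (PerkinElmer) or a Fluostar Omega Reader (BMG Labtech). The resulting data were analyzed with GraphPad PRISM v8.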

[3] = test system: PATU-8902 FKBP12^F36V-KRAS^G12V; KRAS^-/- clone; test: Antiproliferation, PATU-8902 FKBP12F36V-KRASG12V; KRAS-/- clone, 2D-monolayer (CellTiter-Glo)
[4] = log10[compound] (M) -5.69897, replicate values
[5] = log10[compound] (M) -6.19897, replicate values
[6] = log10[compound] (M) -6.69897, replicate values
[7] = log10[compound] (M) -7.19897, replicate values
[8] = log10[compound] (M) -7.69897, replicate values
[9] = log10[compound] (M) -8.19897, replicate values
[10] = log10[compound] (M) -8.69897, replicate values
[11] = log10[compound] (M) -9.19897, replicate values
[12] = log10[compound] (M) -9.69897, replicate values
[13] = log10[compound] (M) -10.199, replicate values

CC[C@H](C(=O)N1CCCC[C@H]1C(=O)O[C@H](CCc1ccc(OC)c(OC)c1)c1ccccc1OCC(=O)NCCCCCCOc1cccc2c1C(=O)N(C1CCC(=O)NC1=O)C2=O)c1cc(OC)c(OC)c(OC)c1 (stereo partly drawn) [dTAG-13]
DMSO-normalized antiproliferation ([1]; log10[compound] (M) -5.69897): 12.7187 and 7.467 and 16.3605 and 9.962 | DMSO-normalized antiproliferation ([1]; log10[compound] (M) -6.19897): 11.9335 and 12.0003 and 12.0114 and 13.9827 | DMSO-normalized antiproliferation ([1]; log10[compound] (M) -6.69897): 14.0106 and 15.4027 and 13.0027 and 15.9484 | DMSO-normalized antiproliferation ([1]; log10[compound] (M) -7.19897): 14.0384 and 16.4385 and 16.9619 and 11.7776 | DMSO-normalized antiproliferation ([1]; log10[compound] (M) -7.69897): 14.9517 and 15.5419 and 18.3931 and 15.5976 | DMSO-normalized antiproliferation ([1]; log10[compound] (M) -8.19897): 24.6577 and 23.0874 and 23.2266 and 22.4971 | DMSO-normalized antiproliferation ([1]; log10[compound] (M) -8.69897): 42.8837 and 45.8128 and 51.5651 and 55.5467 | DMSO-normalized antiproliferation ([1]; log10[compound] (M) -9.19897): 69.8747 and 70.4761 and 56.6493 and 74.3184 | DMSO-normalized antiproliferation ([1]; log10[compound] (M) -9.69897): 76.2117 and 76.4178 and 69.3902 and 68.6162 | DMSO-normalized antiproliferation ([1]; log10[compound] (M) -10.199): 73.2492 and 74.079 and 68.7888 and 65.637 | DMSO-normalized antiproliferation [2, 4]: 83.5347 and 77.755 and 106.784 and 100.802 | DMSO-normalized antiproliferation [2, 5]: 108.447 and 95.2018 and 93.9194 and 111.801 | DMSO-normalized antiproliferation [2, 6]: 105.932 and 113.702 and 105.116 and 107.515 | DMSO-normalized antiproliferation [2, 7]: 104.318 and 154.981 and 104.434 and 95.3632 | DMSO-normalized antiproliferation [2, 8]: 98.1432 and 118.54 and 142.668 and 106.77 | DMSO-normalized antiproliferation [2, 9]: 105.712 and 98.6185 and 105.909 and 92.2738 | DMSO-normalized antiproliferation [2, 10]: 108.958 and 119.361 and 97.2958 and 103.25 | DMSO-normalized antiproliferation [2, 11]: 89.1127 and 99.6498 and 108.86 and 111.989 | DMSO-normalized antiproliferation [2, 12]: 97.9056 and 108.178 and 110.59 and 112.891 | DMSO-normalized antiproliferation [2, 13]: 91.8389 and 92.6594 and 105.927 and 94.166 | DMSO-normalized antiproliferation [3, 4]: 10.9257 and 6.898 and 8.446 and 8.371 | DMSO-normalized antiproliferation [3, 5]: 11.932 and 10.4461 and 13.2552 and 12.7525 | DMSO-normalized antiproliferation [3, 6]: 9.655 and 9.596 and 10.3089 and 13.0861 | DMSO-normalized antiproliferation [3, 7]: 15.4438 and 14.4907 and 17.4502 and 15.1305 | DMSO-normalized antiproliferation [3, 8]: 47.914 and 33.2029 and 20.7399 and 31.0479 | DMSO-normalized antiproliferation [3, 9]: 58.9433 and 77.5971 and 44.7261 and 57.0103 | DMSO-normalized antiproliferation [3, 10]: 103.967 and 74.9703 and 94.8172 and 78.6857 | DMSO-normalized antiproliferation [3, 11]: 94.4313 and 115.825 and 99.9239 and 85.5403 | DMSO-normalized antiproliferation [3, 12]: 101.606 and 85.9324 and 94.5986 and 110.248 | DMSO-normalized antiproliferation [3, 13]: 88.9654 and 100.345 and 66.0988 and 85.3394
